Experiments:
[1] = In vitro metabolic stability in hepatic microsomes; format: in vitro ADME, rat
Experimental: Compounds, each at 5 μM, were incubated for specified times at 37° C. with rat liver microsomes (1 mg protein/ml; Sigma-Aldrich, St. Louis, Mo.) in potassium phosphate buffer (100 mM) containing 1 mM NADPH. The mixture was then chilled on ice, and 0.5 ml of ice-cold ethyl acetate was added.

UT-A1 = biological target: T1, UT-A1 (Rattus norvegicus, UniProt Q62668); assay: Transepithelial urea transport in MDCK cells stably expressing UT-A1; format: cell-based; conditions: UTBinh-14 10 μM, forskolin
T1 construct: expressed in transfected cells; host or cells: MDCK cells (MDCK-UT-A1), obtained as described in cited literature
T1 sequence (Q62668 1-929): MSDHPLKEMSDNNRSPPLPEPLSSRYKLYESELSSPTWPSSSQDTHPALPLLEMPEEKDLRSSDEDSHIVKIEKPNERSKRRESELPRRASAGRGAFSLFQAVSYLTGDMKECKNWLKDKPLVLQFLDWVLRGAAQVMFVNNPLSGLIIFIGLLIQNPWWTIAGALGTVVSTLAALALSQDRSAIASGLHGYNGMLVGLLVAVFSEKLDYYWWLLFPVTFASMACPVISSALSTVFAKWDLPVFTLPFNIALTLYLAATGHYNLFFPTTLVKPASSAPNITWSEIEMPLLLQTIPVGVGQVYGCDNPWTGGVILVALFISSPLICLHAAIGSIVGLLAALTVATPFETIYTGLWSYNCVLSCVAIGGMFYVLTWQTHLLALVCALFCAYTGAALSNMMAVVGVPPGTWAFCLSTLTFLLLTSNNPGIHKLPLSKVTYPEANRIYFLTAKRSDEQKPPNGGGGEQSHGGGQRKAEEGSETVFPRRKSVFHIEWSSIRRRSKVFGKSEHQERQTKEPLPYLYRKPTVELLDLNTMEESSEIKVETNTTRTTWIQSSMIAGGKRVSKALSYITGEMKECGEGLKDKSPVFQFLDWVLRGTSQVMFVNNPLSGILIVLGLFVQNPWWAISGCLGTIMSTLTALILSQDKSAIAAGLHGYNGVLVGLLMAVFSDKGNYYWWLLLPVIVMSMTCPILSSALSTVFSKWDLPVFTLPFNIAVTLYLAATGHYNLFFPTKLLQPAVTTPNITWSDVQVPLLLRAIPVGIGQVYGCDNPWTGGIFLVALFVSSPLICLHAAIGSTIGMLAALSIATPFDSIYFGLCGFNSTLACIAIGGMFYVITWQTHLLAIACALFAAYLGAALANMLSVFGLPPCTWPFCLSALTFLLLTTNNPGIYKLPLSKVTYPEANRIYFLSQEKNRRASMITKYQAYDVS
Experimental: (§1) UT-B selectivity and cytotoxicity were studied. Because of sequence similarities between UT-B and UT-A isoforms, UT-A inhibition was measured. Transepithelial urea transport was measured in MDCK cells stably expressing UT-A1, UT-A3, and UT-B. UT-A1 and UT-A3 are cAMP-regulated urea transporters expressed in kidney tubule epithelia (see, e.g., Frohlich et al., Am. J. Physiol. Cell Physiol. 291:C600-606 (2006); Tickle et al., Am. J. Physiol. Regul. Integr. Comp Physiol 0.297: R323-329 (2009); Stewart et al., Am. J. Physiol. Renal Physiol. 292:F1157-63 (2006)). MDCK cells were cultured on collagen-coated porous filters for measurement of urea accumulation in the apical solution following addition of urea to the basolateral solution.
(§2) cDNAs encoding mouse UT-A3 and UT-B were cloned into pcDNA3.1 and used to generate stably transfected MDCK cell lines. MDCK cells stably expressing rat UT-A1 (MDCK-UT-A1) (see, e.g., Frohlich et al., supra) were obtained as described (see, e.g., Levin et al., FASEB J., supra). Cells were cultured in DMEM containing 10% FBS and 0.5 mg/mL G418. […] Urea flux in the basolateral-to-apical direction across unstimulated and forskolin-stimulated cell layers was measured in response to a 15-mM urea gradient. […]

UT-A3 = biological target: T2, UT-A3 (Mus musculus, UniProt Q8R4T9); assay: Transepithelial urea transport in MDCK cells stably expressing UT-A3; format: cell-based; conditions: UTBinh-14 10 μM, forskolin
T2 construct: expressed in transfected cells
T2 sequence (Q8R4T9 1-461 isoform Q8R4T9-3): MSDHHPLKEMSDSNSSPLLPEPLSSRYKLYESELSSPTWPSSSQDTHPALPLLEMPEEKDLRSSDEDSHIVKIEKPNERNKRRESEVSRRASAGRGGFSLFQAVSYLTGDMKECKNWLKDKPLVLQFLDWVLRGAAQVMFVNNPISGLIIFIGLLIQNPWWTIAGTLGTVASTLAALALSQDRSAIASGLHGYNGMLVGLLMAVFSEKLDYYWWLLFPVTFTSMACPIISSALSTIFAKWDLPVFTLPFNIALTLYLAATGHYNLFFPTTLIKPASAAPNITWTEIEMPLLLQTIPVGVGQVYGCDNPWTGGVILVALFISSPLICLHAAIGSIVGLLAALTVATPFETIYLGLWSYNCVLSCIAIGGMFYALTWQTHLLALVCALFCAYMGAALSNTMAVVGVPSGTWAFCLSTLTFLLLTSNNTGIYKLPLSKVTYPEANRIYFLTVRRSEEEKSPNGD
Experimental: as §1, §2

UT-B = biological target: T3, UT-B (Mus musculus, UniProt Q8VHL0); assay: Transepithelial urea transport in MDCK cells stably expressing UT-B; format: cell-based; conditions: UTBinh-14 10 μM
T3 sequence (Q8VHL0 1-384): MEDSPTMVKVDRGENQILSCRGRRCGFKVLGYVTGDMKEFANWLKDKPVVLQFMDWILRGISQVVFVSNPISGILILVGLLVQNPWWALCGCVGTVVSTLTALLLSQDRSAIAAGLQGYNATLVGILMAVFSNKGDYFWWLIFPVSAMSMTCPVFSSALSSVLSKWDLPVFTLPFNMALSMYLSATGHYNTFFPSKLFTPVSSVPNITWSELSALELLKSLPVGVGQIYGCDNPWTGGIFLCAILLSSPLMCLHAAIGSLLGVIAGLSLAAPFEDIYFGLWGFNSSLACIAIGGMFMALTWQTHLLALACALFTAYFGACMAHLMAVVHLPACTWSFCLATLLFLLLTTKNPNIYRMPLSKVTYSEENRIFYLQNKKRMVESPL
Experimental: as §1, §2

## CCc1ccc(S(=O)(=O)c2nnn3c2nc(NCc2cccs2)c2sccc23)cc1 [UTBinh-14, [3-(4-Ethyl-benzenesulfonyl)-thieno[2,3-e][1,2,3]triazolo[1,5-a]pyrimidin-5-yl]-thiophen-2-ylmethylamine]
[1]; hepatic microsomes, NADPH
  t1/2 for disappearance in hepatic microsomes: approximately 2.8 min
[1]; parent molecule after 30 min incubation with rat liver microsomes
  % Remaining: <5%
UT-A1
  inhibition of UT-A1 facilitated urea transport: little inhibition
UT-A3
  inhibition of UT-A3 facilitated urea transport: little inhibition
UT-B
  inhibition of UT-B facilitated urea transport: strongly inhibited
